Tested on: MDA-MB-436 cells
Assay: CEL-Dox cytotoxicity, Dojindo cell viability assay (Example 1)
Type: cell-based, human
Details: 6 h treatment, grown 48 h, CEL-Dox at 1.5:1
Experimental: The cytotoxicity of CEL-Dox on TNBC cells were evaluated using a cell viability assay. 5×10^3 cells (MDA-MB-231 and MDA-MB-436) were seeded in each well of a 96 well plate and incubated for 24 h. Cells were treated with (1) PBS, (2) Free Dox, (3) non-specific IgG-conjugated, Dox-encapsulating liposomes (IgG-Dox-LPs), (4) ICAM-1 antibody-conjugated, Dox-encapsulating liposomes (ICAM-1-Dox-LP), (5) EGFR antibody-conjugated, Dox-encapsulating liposomes (EGFR-Dox-LP), and (6) Dox-encapsulating CELs at optimal ICAM-1/EGFR antibody ratios (4.2/1 for MDA-MB-231 cells, and 1.5/1 for MDA-MB-436 cells) at the final liposome concentration of 1 μM lipids per 10^6 cells for 6 hours. Cells were rinsed three times with PBS and grown for 48 hours. Cell viability was determined by a Dojindo cell counting kit using the protocol from the manufacturer (Rockville, Md.).

SMILES: COc1cccc2c1C(=O)c1c(O)c3c(c(O)c1C2=O)C[C@@](O)(C(=O)CO)C[C@@H]3O[C@H]1C[C@H](N)[C@H](O)[C@H](C)O1 [free Dox, doxorubicin]
- half maximal inhibitory concentration (IC50): 0.0355 µg/mL
